# Where a name gives a salt, the structure may show the parent alone.
# Assays:
# [1] = tested on: 45Ca2+ uptake (veratrine-stimulated, rat cerebral cortex crude synaptosome fraction); test: 45Ca2+ uptake inhibition experiment; type: biochemical; details: 30 μM veratrine, 37° C., 10 minutes, read-out: 45Ca2+ uptake inhibitory activity (IC50 μM)
# Protocol: The rat cerebral cortex was homogenized in 10 volumes of ice-cooled 0.32M sucrose solution to prepare a crude synaptosome fraction (100×G, 10 min., 12000×G, 20 min.). […] To 900 μl of the homogenate was added a DMSO solution of the test drug (10 μl). The mixture was incubated at 37° C. for 10 minutes, followed by addition of 100 μl of a veratrine solution (containing 0.18 uci ^45 Ca^2+) at a final veratrine concentration of 30 μM. The mixture was incubated at 37° C. for 10 minutes, quenched with 4 ml of ice-cooled EGTA solution (120 mM sodium chloride, 5 mM potassium chloride, 5 mM EGTA, pH=7.5) and suction-filtered using a GF/B filter. The filter was washed twice with 4 ml each of a washing solution (132 mM sodium chloride, 5 mM potassium chloride, 1.3 mM magnesium chloride, 1.2 mM calcium, chloride, 20 mM Tris base, pH 7.5) and the radioactivity of […] was measured by the liquid scintillation method.
# The ^45 Ca^2+ uptake inhibition rate was calculated by means of the following equation. [formula] A: The ^45 Ca^2+ uptake after 10 minutes' stimulation with 30 μM veratrine in the presence of the test drug
# B: The ^45 Ca^2+ uptake in the absence of veratrine and in the presence of the test drug
# C: The ^45 Ca^2+ uptake after 10 minutes' stimulation with 30 μM veratrine in the absence of the test drug
# D: The ^45 Ca^2+ uptake in the absence of the test drug and in the absence of veratrine
# serotonine (5-HT) uptake = test: Activity to inhibit serotonine (5-HT) uptake; type: biochemical; details: rat whole brain; 3H-5-HT 10 nM; 37° C.; pH 7.4; read-out: 5-HT uptake inhibitory activity (IC50 μM)
# Protocol: (a) Activity to inhibit serotonine (5-HT) uptake
# The experiment was performed in accordance with the method of Hyttel et al. [Psychopharmacology 60, 13, 1978]. The whole brain of a rat was homogenized in 40 volumes of ice-cooled 0.32M sucrose solution containing 10 μM pargyline and, then, centrifuged (600×G) for 10 minutes. The supernatant was centrifuged (2500×G) for 55 minutes to provide a pellet. This pellet was suspended in Krebs-Ringer-phosphate buffer (pH 7.4; 122 mM NaCl, 4.82 mM KCl, 0.972 mM CaCl2, 1.21 mM MgSO4, 12.7 mM Na2 HPO4, 2.97 mM NaH2 PO4, 0.162 mM EDTA sodium, 10 mM glucose, 1.14 mM ascorbic acid) saturated with a mixed gas (95% O and 5% CO2). To 900 μl of this suspention was added a solution of the test drug (10 μl) in DMSO and the mixture was incubated at 37° C. for 5 minutes. Then, 100 μl of ^3 H-5-HT (final concentration 10 nM) was added and the mixture was further incubated at 37° C. for 5 minutes. This reaction mixture was filtered under suction using a GF/B filter and the filter was washed with 4 ml of the above-mentioned buffer. The radioactivity on the filter was measured by the liquid scintillation method.
# The amount of the drug which caused a 50% decrease in 5-HT uptake is shown as 50% inhibitory activity (IC50) in Table 42.
# [2] = biological target: T1, GnRH receptors (rat pituitary anterior lobe membrane fraction) (Rattus norvegicus, UniProt P30969); test: 125I-leuprolerin GnRH receptor binding inhibition test, rat pituitary anterior lobe membrane fraction; details: 4° C., 90 minutes, read-out: Binding inhibitory activity (IC50 μM) Rat
# T1 construct: the anterior lobe of the pituitary gland was isolated and washed with ice-cooled homogenate buffer; from tissue; host or cells: anterior lobe of the pituitary gland, male Wistar rats (8 weeks old), membrane fraction
# T1 sequence (P30969 1-327): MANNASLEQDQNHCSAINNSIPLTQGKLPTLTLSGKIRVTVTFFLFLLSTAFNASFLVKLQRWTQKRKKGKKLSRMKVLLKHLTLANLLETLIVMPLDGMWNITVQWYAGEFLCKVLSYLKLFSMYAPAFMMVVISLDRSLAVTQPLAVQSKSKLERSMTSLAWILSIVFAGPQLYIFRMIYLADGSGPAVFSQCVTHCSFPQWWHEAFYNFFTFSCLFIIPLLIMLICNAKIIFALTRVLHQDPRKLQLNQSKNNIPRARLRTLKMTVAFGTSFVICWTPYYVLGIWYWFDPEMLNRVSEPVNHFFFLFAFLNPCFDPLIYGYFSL
# Protocol: Ten (10) μl of 3×10^4 M aqueous leuprolerin solution and 10 μl of 0.01 mg/ml lactoperoxidase were taken in a tube and 10 μl of Na^125 I solution (37 MBq) was added. After stirring, 10 μl of 0.001% H2 O2 was added and the reaction was conducted at room temperature for 20 minutes. Then, 700 μl of 0.05% TFA solution was added to the tube to terminate the reaction and the reaction mixture was purified by reverse-phase HPLC. The HPLC conditions are shown below. ^125 I-leuprolerin was eluted after a retention time of 26-27 minutes. (B) Preparation of a Rat Pituitary Anterior Lobe Membrane Fraction Containing GnRH Receptors […] The pituitary tissue was floated in 2 ml of the homogenate buffer and homogenized using a Polytron homogenizer. The homogenate was centrifuged at 700×G for 15 minutes. The supernatant was taken in an ultracentrifuge tube and centrifuged at 100,000×G for 1 hour to provide a membrane fraction pellet. […] The membrane fraction recovered as a pellet was resuspended in 10 ml of assay buffer, divided into portions, preserved at -80° C. and thawed when needed. […] For the rat and human membrane fractions prepared in (B) and (D), each membrane fraction was diluted with assay buffer to a concentration of 200 μg/ml and distributed in 188 μl portions into tubes. As to the bovine membrane fraction prepared in (C), the membrane fraction was diluted with assay buffer to 750 μg/ml and distributed in 188 μl portions into tubes. […] Where the rat or bovine pituitary anterior lobe membrane fraction was used, the reaction was conducted at 4° C. for 90 minutes. Where the membrane fraction of the CHO with human GnRH receptors expressed was used, the reaction was carried out at 25° C. for 60 minutes. […] After filtration, the radioactivity of ^125 I-leuprolerin remaining on the filter was measured with a γ-counter. The expression (TB-SB)/(TB-NSB)×100 (where SB=radioactivity with the compound added, TB=maximum bound radioactivity, NSB=nonspecifically bound radioactivity) was calculated to find the binding inhibition rate of each test compound.
# [3] = biological target: T2, GnRH receptors (bovine pituitary anterior lobe membrane fraction) (Bos taurus, UniProt P32236); test: 125I-leuprolerin GnRH receptor binding inhibition test, bovine pituitary anterior lobe membrane fraction; details: 4° C., 90 minutes, read-out: Binding inhibitory activity (IC50 μM) Bovine
# T2 construct: A bovine pituitary anterior lobe membrane fraction containing GnRH receptors was prepared; from tissue; host or cells: bovine pituitary anterior lobe, membrane fraction
# T2 sequence (P32236 1-328): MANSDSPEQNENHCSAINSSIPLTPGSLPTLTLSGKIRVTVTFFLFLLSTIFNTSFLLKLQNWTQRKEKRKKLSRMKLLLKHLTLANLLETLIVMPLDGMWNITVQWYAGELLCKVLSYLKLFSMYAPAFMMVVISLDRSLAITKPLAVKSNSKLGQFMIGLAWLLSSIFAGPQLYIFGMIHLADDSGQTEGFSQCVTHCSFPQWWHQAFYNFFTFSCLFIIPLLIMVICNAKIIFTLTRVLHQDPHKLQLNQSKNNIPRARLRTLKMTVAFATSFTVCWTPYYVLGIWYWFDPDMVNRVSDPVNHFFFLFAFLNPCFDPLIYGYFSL
# Protocol: Ten (10) μl of 3×10^4 M aqueous leuprolerin solution and 10 μl of 0.01 mg/ml lactoperoxidase were taken in a tube and 10 μl of Na^125 I solution (37 MBq) was added. After stirring, 10 μl of 0.001% H2 O2 was added and the reaction was conducted at room temperature for 20 minutes. Then, 700 μl of 0.05% TFA solution was added to the tube to terminate the reaction and the reaction mixture was purified by reverse-phase HPLC. The HPLC conditions are shown below. ^125 I-leuprolerin was eluted after a retention time of 26-27 minutes. (C) Preparation of a Bovine Pituitary Anterior Lobe Membrane Fraction Containing GnRH Receptors A bovine pituitary anterior lobe membrane fraction containing GnRH receptors was prepared by the same procedure as described under (B). However, a 10,000×G centrifugation supernatant was recentrifuged at 100,000×G for 1 hour to provide the membrane fraction pellet. […] For the rat and human membrane fractions prepared in (B) and (D), each membrane fraction was diluted with assay buffer to a concentration of 200 μg/ml and distributed in 188 μl portions into tubes. As to the bovine membrane fraction prepared in (C), the membrane fraction was diluted with assay buffer to 750 μg/ml and distributed in 188 μl portions into tubes. […] Where the rat or bovine pituitary anterior lobe membrane fraction was used, the reaction was conducted at 4° C. for 90 minutes. Where the membrane fraction of the CHO with human GnRH receptors expressed was used, the reaction was carried out at 25° C. for 60 minutes. […] After filtration, the radioactivity of ^125 I-leuprolerin remaining on the filter was measured with a γ-counter. The expression (TB-SB)/(TB-NSB)×100 (where SB=radioactivity with the compound added, TB=maximum bound radioactivity, NSB=nonspecifically bound radioactivity) was calculated to find the binding inhibition rate of each test compound.
Compound,IC50 [1] [µM],IC50 (serotonine (5-HT) uptake) [µM],IC50 [2] [µM],IC50 [3] [µM]
"c1ccc(C2(CCCNCc3ccccn3)COCc3ccccc32)cc1 (stereo not shown) [Example I-23, 4-[3-(2-Picolylamino)propyl]-4-phenylisochroman dihydrochloride]",0.5,,,
"Clc1ccc(C2(CCCN3CCN(c4ccccc4)CC3)CN=Cc3ccccc32)cc1 (stereo not shown) [II-13, 4-(p-Chlorophenyl)-3,4-dihydro-4-[3-(4-phenylpiperazino)propyl]isoquinolinetrihydrochloride]",1.29,0.14,,
"c1ccc(C2(CCCNC3CCCc4ccccc43)COCc3ccccc32)cc1 (stereo not shown) [Example I-51, 4-Phenyl-4-{3-[1-(1,2,3,4-tetrahydronaphthylamino)]propyl]isochroman hydrochloride]",,,0.5,10
"Cc1cccc(CNCCCC2(c3ccccc3)COCc3ccccc32)c1 (stereo not shown) [Example I-46, 4-[3-(m-Methylbenzylamino)propyl]-4-phenylisochroman hydrochloride]",,,0.5,14
"c1ccc(C2(CCCN3CCCCCC3)COCc3ccccc32)cc1 (stereo not shown) [Example I-15, 4-[3-(1-Hexamethyleneimino)propyl]-4-phenylisochroman hydrochloride]",1.25,,,
"CN(CCCC1(c2ccccc2)CNCc2ccccc21)Cc1ccccc1 (stereo not shown) [III-7, 4-[3-(N-Benzyl-N-methyl)aminopropyl]-1,2,3,4-tetrahydro-4-phenylisoquinoline dihydrochloride]",1.77,0.2,,
"Fc1ccc(N2CCN(CCCC3(c4ccccc4)CNCc4ccccc43)CC2)cc1 (stereo not shown) [III-9, 4-{3-[4-(p-fluorophenyl)piperazin-1-yl]propyl}-1,2,3,4-tetrahydro-4-phenylisoquinoline dihydrochloride]",1.44,0.17,,
"CN1Cc2ccccc2C(CCCN2CCC(c3ccccc3)CC2)(c2ccc(Cl)cc2)C1 (stereo not shown) [IV-13, 4-(p-Chlorophenyl)-2-methyl-4-[3-(4-phenylpiperidino)propyl]-1,2,3,4-tetrahydroisoquinoline trihydrochloride]",0.32,0.13,,
"c1ccc(N2CCN(CCC3(c4ccccc4)COCc4ccccc43)CC2)cc1 (stereo not shown) [Example I-6, 4-[2-(4-Phenylpiperazin-1-yl)ethyl]-4-phenylisochroman dihydrochloride]",0.32,1,,
"C1=NCC(CCCN2CCN(c3ccccc3)CC2)(c2ccccc2)c2ccccc21 (stereo not shown) [II-8, 4-Phenyl-4-[3-(4-phenylpiperazin-1-yl)propyl]isoquinoline]",1.84,0.41,,
"CN(CCCC1(c2ccccc2)CN=Cc2ccccc21)Cc1ccccc1 (stereo not shown) [II-7, 4-[3-(N-Benzyl-N-methyl)aminopropyl]-3,4-dihydro-4-phenylisoquinoline dihydrochloride]",0.46,0.88,,
"c1ccc(CNCCCC2(c3ccccc3)COCc3ccccc32)cc1 (stereo not shown) [Example I-18, 4-[3-(Benzylamino)propyl]-4-phenylisochroman hydrochloride]",1.32,0.8,,
"Clc1ccccc1CNCCCC1(c2ccccc2)COCc2ccccc21 (stereo not shown) [Example I-20, 4-[3-(o-Chlorobenzylamino)propyl]-4-phenylisochroman hydrochloride]",0.94,,,
"Fc1ccccc1CNCCCC1(c2ccccc2)COCc2ccccc21 (stereo not shown) [Example I-19, 4-[3-(o-Fluorobenzylamino)propyl]-4-phenylisochroman hydrochloride]",1.05,,,
"c1ccc(N2CCN(CCCC3(c4ccccc4)CNCc4ccccc43)CC2)cc1 (stereo not shown) [III-8, 1,2,3,4-Tetrahydro-4-phenyl-4-[3-(4-phenylpiperazin-1-yl)propyl]isoquinoline trihydrochloride]",1.63,0.16,,
"CN1Cc2ccccc2C(CCCN2CCN(c3ccccc3)CC2)(c2ccccc2)C1 (stereo not shown) [IV-7, 1,2,3,4-Tetrahydro-2-methyl-4-phenyl-4-[3-(4-phenylpiperazin-1-yl)propyl]isoquinoline trihydrochloride]",1.71,0.18,,

# From patent US5654296A, “Condensed heterocyclic compounds, their production and use” (priority 1994, dated 1997)
